These results are taken from patent US20250171499A1, “PHARMACEUTICAL FORMULATIONS AND METHODS FOR THE TREATMENT OF METABOLIC AND LIVER DISORDERS” (Viking Therapeutics, Inc., priority 2022, published 2025).

Series [1] has as its target T1, GIP receptor (Homo sapiens, UniProt P48546).
T1 sequence (P48546 22-466): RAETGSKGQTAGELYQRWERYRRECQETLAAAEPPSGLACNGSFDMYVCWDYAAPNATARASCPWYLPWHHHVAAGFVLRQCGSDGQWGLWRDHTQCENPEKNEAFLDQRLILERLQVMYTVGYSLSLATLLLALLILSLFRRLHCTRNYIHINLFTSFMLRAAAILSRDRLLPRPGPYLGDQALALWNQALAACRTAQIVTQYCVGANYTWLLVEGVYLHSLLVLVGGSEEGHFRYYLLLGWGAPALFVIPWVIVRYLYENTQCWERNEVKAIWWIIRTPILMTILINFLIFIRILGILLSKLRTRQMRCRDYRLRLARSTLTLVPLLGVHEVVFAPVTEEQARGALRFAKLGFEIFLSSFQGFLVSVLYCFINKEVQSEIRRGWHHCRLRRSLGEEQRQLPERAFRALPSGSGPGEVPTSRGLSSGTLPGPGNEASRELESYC
As to the kind of experiment: Binding assay in the presence or absence of 2% human serum albumin, GIP receptor. The settings on record: IC50 with 2% HSA to IC50 with 0% HSA.

For series [2], the target named is GLP-1 receptor (Homo sapiens, UniProt P43220). The following applies: IC50 with 2% HSA to IC50 with 0% HSA.
A short description of series [3]: Pharmacokinetics study of formulations, subcutaneous dosing. The following applies: Formulation 2; SC 0.2 mg/kg; male cynomolgus monkeys. Format: in vivo.
Description: Formulation 1 included the compound in a vehicle of 0.1% bovine serum albumin in phosphate buffered saline solution. […] Samples were obtained at 1, 4, 8, 12, 24, 48, 72, 96, 120, 168, 192, 240 and 336 hours after the single dose was administered.

Chain of GLP-1 receptor (P43220 24-463, species assumed): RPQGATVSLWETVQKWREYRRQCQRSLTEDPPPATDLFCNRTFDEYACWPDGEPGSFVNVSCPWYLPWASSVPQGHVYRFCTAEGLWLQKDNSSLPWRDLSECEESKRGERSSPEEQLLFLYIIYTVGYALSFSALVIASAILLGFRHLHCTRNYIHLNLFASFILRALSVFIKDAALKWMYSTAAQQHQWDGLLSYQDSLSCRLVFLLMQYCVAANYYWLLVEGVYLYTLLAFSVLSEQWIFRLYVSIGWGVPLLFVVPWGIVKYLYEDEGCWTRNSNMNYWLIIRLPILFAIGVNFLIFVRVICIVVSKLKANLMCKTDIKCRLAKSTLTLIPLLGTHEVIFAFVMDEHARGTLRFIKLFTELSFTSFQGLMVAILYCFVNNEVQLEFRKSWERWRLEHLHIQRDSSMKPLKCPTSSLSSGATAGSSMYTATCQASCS

As for `CC[C@H](C)[C@H](NC(=O)[C@H](CC(C)C)NC(=O)[C@H](Cc1c[nH]c2ccccc12)NC(=O)[C@H](CCC(N)=O)NC(=O)[C@@H](NC(=O)[C@H](Cc1ccccc1)NC(=O)[C@H](C)NC(=O)[C@H](CCCCNC(=O)COCCOCCNC(=O)COCCOCCNC(=O)CC[C@H](NC(=O)CCCCCCCCCCCCCCCCCCP(=O)(O)O)C(=O)O)NC(=O)[C@H](CCC(N)=O)NC(=O)[C@H](C)NC(=O)[C@@H](NC(=O)[C@H](CCCCN)NC(=O)[C@H](CC(=O)O)NC(=O)[C@H](CC(C)C)NC(=O)C(C)(C)NC(=O)[C@@H](NC(=O)[C@H](CO)NC(=O)[C@H](Cc1ccc(O)cc1)NC(=O)[C@H](CC(=O)O)NC(=O)[C@H](CO)NC(=O)[C@@H](NC(=O)[C@H](Cc1ccccc1)NC(=O)[C@@H](NC(=O)CNC(=O)[C@H](CCC(=O)O)NC(=O)C(C)(C)NC(=O)[C@@H](N)Cc1ccc(O)cc1)[C@@H](C)O)[C@@H](C)O)[C@@H](C)CC)[C@@H](C)CC)C(C)C)C(=O)N[C@@H](C)C(=O)NCC(=O)NCC(=O)N1CCC[C@H]1C(=O)N[C@@H](CO)C(=O)N[C@@H](CO)C(=O)NCC(=O)N[C@@H](C)C(=O)N1CCC[C@H]1C(=O)N1CCC[C@H]1C(=O)N1CCC[C@H]1C(=O)N[C@@H](CO)C(N)=O` [Compound 4], the “GIP receptor Ratio of HSA:No HSA” value in series [1] is reported as 1.25. Moreover, the “GLP-1 receptor Ratio of HSA:No HSA” value in series [2] amounted to 6.42. Further, in series [3], the “mean half life compared to tirzepatide” value is given as “twice as long”.
